Key:
[1] = Drug level in PDAPP V717F transgenic mouse brain at 100 mg/kg, sc; assay type: ADME, organism-based; conditions: in vivo, read-out: Ct
[2] = Metabolic stability in mouse liver microsomes assessed as metabolized drug level after 30 mins in presence of NADPH by LC-MS/MS analysis; assay type: ADME, Microsome; conditions: read-out: Drug metabolism
[3] = Drug level in PDAPP V717F transgenic mouse plasma assessed as unbound fraction at 10 mg/kg, sc; assay type: ADME, organism-based; conditions: in vivo
[4] = Ratio of unbound fraction in PDAPP V717F transgenic mouse brain to plasma at 30 mg/kg, sc; assay type: ADME, organism-based; conditions: read-out: K(p,uu,brain)
[5] = Drug level in PDAPP V717F transgenic mouse plasma at 30 mg/kg, sc; assay type: ADME, organism-based; conditions: in vivo
[6] = Drug level in PDAPP V717F transgenic mouse plasma assessed as unbound fraction at 100 mg/kg, sc; assay type: ADME, organism-based; conditions: in vivo
[7] = Drug level in PDAPP V717F transgenic mouse brain at 30 mg/kg, sc; assay type: ADME, organism-based; conditions: in vivo, read-out: Ct
[8] = Drug level in PDAPP V717F transgenic mouse brain at 10 mg/kg, sc; assay type: ADME, organism-based; conditions: in vivo, read-out: Ct
[9] = Permeability in MDCK-MDR1 cells at 5 uM after 1 hr by LC-MS/MS analysis; assay type: ADME, cell-based, Canis lupus familiaris; conditions: dog, read-out: permeability
[10] = Metabolic stability in human pooled liver microsomes assessed as metabolized drug level after 30 mins in presence of NADPH by LC-MS/MS analysis; assay type: ADME, Microsome; conditions: read-out: Drug metabolism
[11] = Drug level in PDAPP V717F transgenic mouse plasma at 100 mg/kg, sc; assay type: ADME, organism-based; conditions: in vivo
[12] = Ratio of unbound fraction in PDAPP V717F transgenic mouse brain to plasma at 10 mg/kg, sc; assay type: ADME, organism-based; conditions: read-out: K(p,uu,brain)
[13] = Metabolic stability in rat liver microsomes assessed as metabolized drug level after 30 mins in presence of NADPH by LC-MS/MS analysis; assay type: ADME, Microsome; conditions: read-out: Drug metabolism
[14] = Drug level in PDAPP V717F transgenic mouse plasma assessed as unbound fraction at 30 mg/kg, sc; assay type: ADME, organism-based; conditions: in vivo
[15] = Drug level in PDAPP V717F transgenic mouse plasma at 10 mg/kg, sc; assay type: ADME, organism-based; conditions: in vivo
[16] = Metabolic stability in dog liver microsomes assessed as metabolized drug level after 30 mins in presence of NADPH by LC-MS/MS analysis; assay type: ADME, Canis lupus familiaris, Microsome; conditions: read-out: Drug metabolism
[17] = Ratio of unbound fraction in PDAPP V717F transgenic mouse brain to plasma at 100 mg/kg, sc; assay type: ADME, organism-based; conditions: read-out: K(p,uu,brain)

| SMILES | concentration [1] | metabolised at 0.5 h [2] | Cp(f) [3] | Kp uu [4] | concentration [5] | Cp(f) [6] | concentration [7] | concentration [8] | Papp at 1 h, 5 µM [9] | metabolised at 0.5 h [10] | concentration [11] | Kp uu [12] | metabolised at 0.5 h [13] | Cp(f) [14] | concentration [15] | metabolised at 0.5 h [16] | Kp uu [17] |
| --- | --- | --- | --- | --- | --- | --- | --- | --- | --- | --- | --- | --- | --- | --- | --- | --- | --- |
| C[C@@H]1C[C@H]1COC(C)(C)[C@@H]1C[C@H]1[C@]12CN(c3ncccn3)C[C@H]1CSC(N)=N2 | 389 nM | 98% | 17 nM | 0.17 | 326 nM | 102 nM | 176 nM | 63 nM | 36 ×10⁻⁶ cm/s | 31% | 815 nM | 0.18 | 98% | 41 nM | 133 nM | 79% | 0.16 |
| C[C@@H]1C[C@H]1CNC(=O)[C@@H]1C[C@H]1[C@]12CN(c3ncccn3)C[C@H]1CSC(N)=N2 |  | 33% |  |  |  |  |  |  | 8 ×10⁻⁶ cm/s | 13% |  |  | 55% |  |  | 28% |  |
